{"source": "patent EP3685668B1", "about": "“COMPOSITION COMPRISING ACIBENZOLAR-S-METHYL AS EFFECTIVE INGREDIENT FOR CONTROLLING BURSAPHELENCHUS XYLOPHILUS DISEASE AND METHOD FOR CONTROLLING BURSAPHELENCHUS XYLOPHILUS USING SAME” (Industry Foundation of Chonnam National University, priority 2017, dated 2019)", "test_in_all_cases": "qRT-PCR expression of induced resistance gene in pine tree callus", "format_in_all_cases": "cell-based", "conditions_in_all_cases": "200 µg/mℓ, 24 hours", "key": {"[1]": {"test_system": "Extensin", "method": "(§1) For in vitro analysis of induced resistance, the expression of PR genes and other plant defense-related genes was determined, which are evolved in various defense mechanisms including induced resistance. The primers of sixteen induced resistance-related genes of pine tree used in this invention were listed in the below and elongation factor_1 alpha were used as a reference gene. [Table 4] The primer list of defense resistance-related genes\n(§2) After the treatment with 200 µg / mℓ of candidates of the selected induced resistance material, expression of the induced resistance-related gene in pine callus was determined by qRT-PCR using the primer pairs of defense resistance-related genes in Table 4. As a candidate group of an induced resistance material in pine tree, acibenzolar-S-methyl (ASM), TDL (Tiadinil), ITL (Isotianil), PBZ (Probenzole), AZO (Azoxystrobin), VMA (Validamycin A), MeJA (Methyl jasmonate), BABA (DL-3-aminobutyric acid), 2,3-BDO (2,3-Butanediol), GABA (r-Aminobutyric acid), glucan (Glucan), ER (Ergosterol), and AZA (Azelaic acid) were used. For the in vitro analysis of the expression of induced resistance gene in pine callus, the selected induced resistance materials were applied with 500 µℓ of LM liquid medium on a surface of pine tree callus (100 mg) in 12-well microplate to give final concentration of 200 µg/mℓ. Then, the callus surface was sufficiently reacted for 24 hours with the candidate of pine tree induced resistance material by shaking at 50 rpm in a 25 °C shaking incubator under dark condition. RNAs were extracted from the callus after completion of the reaction with an induced resistance material, followed by synthesis of cDNAs. Then, by carrying out qRT-PCR, the expression of induced resistance genes was determined. [Table 5] Expression of induced resistance gene in pine tree callus by TDL, PBZ, ASM, ITL, AZO, VMA, glucan, and AZA\n(§3) Based on the results of assay using young plants and gene expression by selected induce resistance materials, it seemed that acibenzolar-S-methyl had the most excellent effect. Thus, the following tests were carried out using acibenzolar-S-methyl only. Expression of the induced resistance genes at different culture time after the chemical treatment was examined. For the in vitro assay, LM medium containing pine tree callus was treated with acibenzolar-S-methyl at concentration of 200 µg / mℓ, followed by reaction for 1 day, 7 days, or 14 days in a 25°C shaking incubator under dark condition. RNAs were extracted from the callus after the reaction followed by synthesis of cDNAs. Then, by carrying out qRT-PCR, the expression of the induced resistance genes was determined. Depending on reaction time after the treatment, i.e., after 1 day, 7 days, or 14 days, the expression of the obtained induced resistance genes was examined. As a result of the in vitro callus assay depending on reaction time after the treatment with acibenzolar-S-methyl, the expression of the induced resistance-related genes is the highest at 1 day after the treatment with acibenzolar-S-methyl and gradually diminished over time, as it is shown in Table 7. In this regard, it is contemplated that the expression of genes acquired by acibenzolar-S-methyl is not maintained in highly expressed state until the pathogen invasion and just memorized with at minimum level so that the energy consumption by plant can be efficiently managed. [Table 7] Expression of induced resistance gene in pine tree callus by acibenzolar-S-methyl depending on reaction time\n(§4) To have an in vitro assay according to different methods of treatment with acibenzolar-S-methyl, two separate treatment methods, i.e., surface treatment (spraying treatment) of pine tree callus and direct application of the induced resistance material to an LM medium containing pine tree callus, were performed. […]"}, "[2]": {"test_system": "PR_10 family", "method": "as §1, §2, §3, §4"}, "[3]": {"test_system": "PR_4 family", "method": "as §1, §2, §3, §4"}, "[4]": {"test_system": "PR_3 family class 1", "method": "as §1, §2, §3, §4"}, "[5]": {"test_system": "PR_5 family", "method": "as §1, §2, §3, §4"}, "[6]": {"test_system": "Xyloglucan", "method": "as §1, §2, §3, §4"}, "[7]": {"test_system": "PR_9 family", "method": "as §1, §2, §3, §4"}, "[8]": {"test_system": "Heat shock 70", "method": "as §1, §2, §3, §4"}, "[9]": {"test_system": "PR_2 family", "method": "as §1, §2, §3, §4"}, "[10]": {"test_system": "PR_3 family class 4", "method": "as §1, §2, §3, §4"}, "[11]": {"test_system": "Hydroxyproline", "method": "as §1, §2, §3, §4"}, "[12]": {"test_system": "Antipeptide", "method": "as §1, §2, §3, §4"}, "[13]": {"test_system": "PR_1b family", "method": "as §1, §2, §3, §4"}, "[14]": {"test_system": "Metallothionein", "method": "as §1, §2, §3, §4"}}}
{"smiles": "N#Cc1ccccc1NC(=O)c1snc(Cl)c1Cl", "note": "[ITL, Isotianil]", "values": [{"measurement": "Expression of induced resistance gene, Extensin", "setting": "[1]", "result": 1.39}, {"measurement": "Expression of induced resistance gene, PR_10 family", "setting": "[2]", "result": 1}, {"measurement": "Expression of induced resistance gene, PR_4 family", "setting": "[3]", "result": 1.39}, {"measurement": "Expression of induced resistance gene, PR_3 family class 1", "setting": "[4]", "result": 0.95}, {"measurement": "Expression of induced resistance gene, PR_5 family", "setting": "[5]", "result": 0.95}, {"measurement": "Expression of induced resistance gene, Xyloglucan", "setting": "[6]", "result": 0.97}, {"measurement": "Expression of induced resistance gene, PR_9 family", "setting": "[7]", "result": 1.88}, {"measurement": "Expression of induced resistance gene, Heat shock 70", "setting": "[8]", "result": 0.43}, {"measurement": "Expression of induced resistance gene, PR_2 family", "setting": "[9]", "result": 1.48}, {"measurement": "Expression of induced resistance gene, PR_3 family class 4", "setting": "[10]", "result": 0.81}, {"measurement": "Expression of induced resistance gene, Hydroxyproline", "setting": "[11]", "result": 0.72}, {"measurement": "Expression of induced resistance gene, Antipeptide", "setting": "[12]", "result": 0.75}, {"measurement": "Expression of induced resistance gene, PR_1b family", "setting": "[13]", "result": 1.77}, {"measurement": "Expression of induced resistance gene, Metallothionein", "setting": "[14]", "result": 0.09}]}
